For this experiment, the system named is human red blood cells. To be noted: red cells of human.

Molecules are shown by their SMILES. Read-outs that look alike come from different tables or passages of the source. Non-standard residues stand in square brackets, D forms with d. Residues, ends and D or L forms follow the SMILES beside them. βAla = NCCC(=O)O A value given as a limit tells only on which side of the number the result lay.

In the case of `CC[C@H](C)[C@H](NC(=O)[C@H](Cc1ccccc1)NC(=O)[C@H](CCC(=O)O)NC(=O)[C@H](CCC(=O)O)NC(=O)[C@@H](NC(=O)[C@H](Cc1ccccc1)NC(=O)[C@H](CCC(=O)O)NC(=O)[C@H](Cc1ccccc1)NC(=O)CNC(=O)CCNC(=O)[C@@H](N)CS)[C@@H](C)CC)C(=O)N[C@@H](CCC(=O)O)C(=O)N[C@@H](CC(N)=O)C(=O)NCC(=O)N[C@@H](CC(C)C)C(=O)N[C@@H](CCCCN)C(=O)N[C@@H](CC(N)=O)C(=O)N[C@@H](CC(C)C)C(=O)N[C@H](C(=O)N[C@@H](CC(=O)O)C(=O)N[C@@H](Cc1c[nH]c2ccccc12)C(=O)N[C@@H](Cc1c[nH]c2ccccc12)C(=O)N[C@@H](Cc1ccc(O)cc1)C(=O)NCC(=O)N[C@@H](Cc1ccc(O)cc1)C(=O)NCC(=O)N[C@@H](CCCNC(=N)N)C(=O)N[C@@H](CCCCN)C(=O)N[C@@H](CCCCN)C(=O)N[C@@H](CCCNC(=N)N)C(=O)N[C@@H](CCCNC(=N)N)C(=O)N[C@@H](CCC(N)=O)C(=O)N[C@@H](CCCNC(=N)N)C(=O)N[C@@H](CCCNC(=N)N)C(N)=O)[C@@H](C)CC` [Peptide 60] (H-C[βAla]GFEFIEEFIENGLKNLIDWWYGYGRKKRRQRR-NH2), the IC50 runs as follows: (pH 5.5) 1.14 µM; (pH 7.4) 12.8 µM.
For the compound `CC[C@H](C)[C@H](NC(=O)[C@H](CCC(=O)O)NC(=O)CNC(=O)[C@H](Cc1ccccc1)NC(=O)[C@H](CC(C)C)NC(=O)CNC(=O)[C@@H](N)CS)C(=O)N[C@@H](CCC(=O)O)C(=O)N[C@@H](CCC(=O)O)C(=O)N[C@@H](CC(C)C)C(=O)N[C@H](C(=O)N[C@@H](CCC(=O)O)C(=O)N[C@@H](CCC(=O)O)C(=O)NCC(=O)N[C@@H](CC(C)C)C(=O)N[C@@H](CCCCN)C(=O)N[C@@H](CC(N)=O)C(=O)N[C@@H](CC(C)C)C(=O)N[C@H](C(=O)N[C@@H](CC(=O)O)C(=O)N[C@@H](Cc1c[nH]c2ccccc12)C(=O)N[C@@H](Cc1c[nH]c2ccccc12)C(=O)N[C@@H](Cc1ccc(O)cc1)C(=O)NCC(=O)N[C@@H](Cc1ccc(O)cc1)C(=O)NCC(=O)N[C@@H](CCCNC(=N)N)C(=O)N[C@@H](CCCCN)C(=O)N[C@@H](CCCCN)C(=O)N[C@@H](CCCNC(=N)N)C(=O)N[C@@H](CCCNC(=N)N)C(=O)N[C@@H](CCC(N)=O)C(=O)N[C@@H](CCCNC(=N)N)C(=O)N[C@@H](CCCNC(=N)N)C(N)=O)[C@@H](C)CC)[C@@H](C)CC` [Peptide 61] (H-CGLFGEIEELIEEGLKNLIDWWYGYGRKKRRQRR-NH2), the IC50 runs as follows: (pH 5.5) 0.97 µM; (pH 7.4) 8.07 µM.
The matching figures for `CC[C@H](C)[C@H](NC(=O)[C@H](CCC(=O)O)NC(=O)CNC(=O)[C@H](Cc1ccccc1)NC(=O)[C@H](CC(C)C)NC(=O)CNC(=O)[C@@H](N)CS)C(=O)N[C@@H](CCC(=O)O)C(=O)N[C@@H](CCC(=O)O)C(=O)N[C@@H](CC(C)C)C(=O)N[C@H](C(=O)N[C@@H](CCC(=O)O)C(=O)N[C@@H](CCC(=O)O)C(=O)NCC(=O)N[C@@H](CC(C)C)C(=O)N[C@@H](CCCCN)C(=O)N[C@@H](CC(N)=O)C(=O)N[C@@H](CC(C)C)C(=O)N[C@H](C(=O)N[C@@H](CC(=O)O)C(=O)N[C@@H](Cc1c[nH]c2ccccc12)C(=O)N[C@@H](Cc1c[nH]c2ccccc12)C(=O)N[C@@H](Cc1ccc(O)cc1)C(=O)NCC(=O)N[C@@H](Cc1ccc(O)cc1)C(=O)NCC(=O)N[C@@H](Cc1c[nH]cn1)C(=O)N[C@@H](CCCCN)C(=O)N[C@@H](CCCCN)C(=O)N[C@@H](Cc1c[nH]cn1)C(=O)N[C@@H](Cc1c[nH]cn1)C(=O)N[C@@H](CCC(N)=O)C(=O)N[C@@H](Cc1c[nH]cn1)C(=O)N[C@@H](CCCNC(=N)N)C(N)=O)[C@@H](C)CC)[C@@H](C)CC` [Peptide 62] (H-CGLFGEIEELIEEGLKNLIDWWYGYGHKKHHQHR-NH2): 1.28 µM and > 20 µM.
For the compound `CC[C@H](C)[C@H](NC(=O)[C@H](CCC(=O)O)NC(=O)CNC(=O)[C@H](Cc1ccccc1)NC(=O)[C@H](CC(C)C)NC(=O)CNC(=O)[C@@H](N)CS)C(=O)N[C@@H](CCC(=O)O)C(=O)N[C@@H](CCC(=O)O)C(=O)N[C@@H](CC(C)C)C(=O)N[C@H](C(=O)N[C@@H](CCC(=O)O)C(=O)N[C@@H](CCC(=O)O)C(=O)NCC(=O)N[C@@H](CC(C)C)C(=O)N[C@@H](CCC(=O)O)C(=O)N[C@@H](CC(N)=O)C(=O)N[C@@H](CC(C)C)C(=O)N[C@H](C(=O)N[C@@H](CC(=O)O)C(=O)N[C@@H](Cc1c[nH]c2ccccc12)C(=O)N[C@@H](Cc1c[nH]c2ccccc12)C(=O)N[C@@H](Cc1ccc(O)cc1)C(=O)NCC(=O)N[C@@H](Cc1ccc(O)cc1)C(=O)NCC(=O)N[C@@H](CCCNC(=N)N)C(=O)N[C@@H](CCCCN)C(=O)N[C@@H](CCCCN)C(=O)N[C@@H](CCCNC(=N)N)C(=O)N[C@@H](CCCNC(=N)N)C(=O)N[C@@H](CCC(N)=O)C(=O)N[C@@H](CCCNC(=N)N)C(=O)N[C@@H](CCCNC(=N)N)C(N)=O)[C@@H](C)CC)[C@@H](C)CC` [Peptide 63] (H-CGLFGEIEELIEEGLENLIDWWYGYGRKKRRQRR-NH2), the IC50 was 3.6 µM (pH 5.5) and > 20 µM (pH 7.4).
The like results for `CC[C@H](C)[C@H](NC(=O)[C@H](CCC(=O)O)NC(=O)CNC(=O)[C@H](Cc1ccccc1)NC(=O)[C@H](CC(C)C)NC(=O)CNC(=O)[C@@H](N)CS)C(=O)N[C@@H](CCC(=O)O)C(=O)N[C@@H](CCC(=O)O)C(=O)N[C@@H](CC(C)C)C(=O)N[C@H](C(=O)N[C@@H](CCC(=O)O)C(=O)N[C@@H](CCC(=O)O)C(=O)NCC(=O)N[C@@H](CC(C)C)C(=O)N[C@@H](CCC(=O)O)C(=O)N[C@@H](CC(N)=O)C(=O)N[C@@H](CC(C)C)C(=O)N[C@H](C(=O)N[C@@H](CC(=O)O)C(=O)N[C@@H](Cc1c[nH]c2ccccc12)C(=O)N[C@@H](Cc1c[nH]c2ccccc12)C(=O)N[C@@H](Cc1ccc(O)cc1)C(=O)NCC(=O)N[C@@H](Cc1ccc(O)cc1)C(=O)NCC(=O)N[C@@H](Cc1c[nH]cn1)C(=O)N[C@@H](CCCCN)C(=O)N[C@@H](CCCCN)C(=O)N[C@@H](Cc1c[nH]cn1)C(=O)N[C@@H](Cc1c[nH]cn1)C(=O)N[C@@H](CCC(N)=O)C(=O)N[C@@H](Cc1c[nH]cn1)C(=O)N[C@@H](CCCNC(=N)N)C(N)=O)[C@@H](C)CC)[C@@H](C)CC` [Peptide 64] (H-CGLFGEIEELIEEGLENLIDWWYGYGHKKHHQHR-NH2) were, in that order, 3.91 µM and > 20 µM.
The like results for `CC[C@H](C)[C@H](NC(=O)[C@H](CCC(=O)O)NC(=O)CNC(=O)[C@H](Cc1ccccc1)NC(=O)[C@H](CC(C)C)NC(=O)CNC(=O)[C@@H](N)CS)C(=O)N[C@@H](CCC(=O)O)C(=O)N[C@@H](CCC(=O)O)C(=O)N[C@@H](Cc1ccccc1)C(=O)N[C@H](C(=O)N[C@@H](CCC(=O)O)C(=O)N[C@@H](CCC(=O)O)C(=O)NCC(=O)N[C@@H](CC(C)C)C(=O)N[C@@H](CCC(=O)O)C(=O)N[C@@H](CC(N)=O)C(=O)N[C@@H](CC(C)C)C(=O)N[C@H](C(=O)N[C@@H](CC(=O)O)C(=O)N[C@@H](Cc1c[nH]c2ccccc12)C(=O)N[C@@H](Cc1c[nH]c2ccccc12)C(=O)N[C@@H](Cc1ccc(O)cc1)C(=O)NCC(=O)N[C@@H](Cc1ccc(O)cc1)C(=O)NCC(=O)N[C@@H](CCCNC(=N)N)C(=O)N[C@@H](CCCCN)C(=O)N[C@@H](CCCCN)C(=O)N[C@@H](CCCNC(=N)N)C(=O)N[C@@H](CCCNC(=N)N)C(=O)N[C@@H](CCC(N)=O)C(=O)N[C@@H](CCCNC(=N)N)C(=O)N[C@@H](CCCNC(=N)N)C(N)=O)[C@@H](C)CC)[C@@H](C)CC` [Peptide 65] (H-CGLFGEIEEFIEEGLENLIDWWYGYGRKKRRQRR-NH2) were, in that order, 3.15 µM and > 20 µM.
The like results for `CC[C@H](C)[C@H](NC(=O)[C@H](CCC(=O)O)NC(=O)CNC(=O)[C@H](Cc1ccccc1)NC(=O)[C@H](CC(C)C)NC(=O)CNC(=O)[C@@H](N)CS)C(=O)N[C@@H](CCC(=O)O)C(=O)N[C@@H](CCC(=O)O)C(=O)N[C@@H](Cc1ccccc1)C(=O)N[C@H](C(=O)N[C@@H](CCC(=O)O)C(=O)N[C@@H](CCC(=O)O)C(=O)NCC(=O)N[C@@H](Cc1c[nH]c2ccccc12)C(=O)N[C@@H](CCC(=O)O)C(=O)N[C@@H](CC(N)=O)C(=O)N[C@@H](Cc1ccccc1)C(=O)N[C@H](C(=O)N[C@@H](CC(=O)O)C(=O)N[C@@H](Cc1c[nH]c2ccccc12)C(=O)N[C@@H](Cc1c[nH]c2ccccc12)C(=O)N[C@@H](Cc1ccc(O)cc1)C(=O)NCC(=O)N[C@@H](Cc1ccc(O)cc1)C(=O)NCC(=O)N[C@@H](CCCNC(=N)N)C(=O)N[C@@H](CCCCN)C(=O)N[C@@H](CCCCN)C(=O)N[C@@H](CCCNC(=N)N)C(=O)N[C@@H](CCCNC(=N)N)C(=O)N[C@@H](CCC(N)=O)C(=O)N[C@@H](CCCNC(=N)N)C(=O)N[C@@H](CCCNC(=N)N)C(N)=O)[C@@H](C)CC)[C@@H](C)CC` [Peptide 66] (H-CGLFGEIEEFIEEGWENFIDWWYGYGRKKRRQRR-NH2) were, in that order, 4.08 µM and > 20 µM.
On to `CC[C@H](C)[C@H](NC(=O)[C@H](CC(C)C)NC(=O)[C@H](CCC(=O)O)NC(=O)[C@H](CCC(=O)O)NC(=O)[C@@H](NC(=O)[C@H](CCC(=O)O)NC(=O)[C@H](CCC(=O)O)NC(=O)[C@H](Cc1ccccc1)NC(=O)[C@H](CC(C)C)NC(=O)CNC(=O)[C@@H](N)CS)[C@@H](C)CC)C(=O)N[C@@H](CCC(=O)O)C(=O)N[C@@H](CCC(=O)O)C(=O)NCC(=O)N[C@@H](CC(C)C)C(=O)N[C@@H](CCC(=O)O)C(=O)N[C@@H](CC(N)=O)C(=O)N[C@@H](CC(C)C)C(=O)N[C@H](C(=O)N[C@@H](CC(=O)O)C(=O)N[C@@H](Cc1c[nH]c2ccccc12)C(=O)N[C@@H](Cc1c[nH]c2ccccc12)C(=O)N[C@@H](Cc1ccc(O)cc1)C(=O)NCC(=O)N[C@@H](Cc1ccc(O)cc1)C(=O)NCC(=O)N[C@@H](CCCNC(=N)N)C(=O)N[C@@H](CCCCN)C(=O)N[C@@H](CCCCN)C(=O)N[C@@H](CCCNC(=N)N)C(=O)N[C@@H](CCCNC(=N)N)C(=O)N[C@@H](CCC(N)=O)C(=O)N[C@@H](CCCNC(=N)N)C(=O)N[C@@H](CCCNC(=N)N)C(N)=O)[C@@H](C)CC` [Peptide 68] (H-CGLFEEIEELIEEGLENLIDWWYGYGRKKRRQRR-NH2), for which the IC50 is, setting by setting: (pH 5.5) 4.11 µM; (pH 7.4) > 20 µM.

The values are drawn from article PMC6600388 (2019).
